# Earlier results, collected in patent publication US20240091240A1, “TREATMENTS FOR BLOOD-BRAIN BARRIER DYSFUNCTION AND RECURRENT SEIZURES USING NOX/LOX/COX INHIBITORS” (University of Kentucky Research Foundation, priority 2022, published 2024).
# Test system: subjects suffering from seizures
# Conditions: dosage of 5 mg/kg and 10 mg/kg
structure (smiles),measurement,value
CC1(C)Cc2c(-c3ccccc3)c(-c3ccc(Cl)cc3)c(CC(=O)O)n2C1 [licofelone],brain capillary leakage,reduce brain capillary leakage
